Converted amounts (≈) assume the structure as drawn.
What was measured:
S. aureus DSM 20231 [1] = assay: fitness (endpoint OD595 vs no drug) (fraction); higher = more growth
In short: (§1)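 Volumes were 30 µl per well, or 55 µl for S. pneumoniae, in 384-well plates inoculated at OD595 0.01. Media were TSB, LB Lennox or CY at 37 °C, and OD595 was read every 30 min for 14 h with first-reading background subtraction. Fitness is the ratio of optical density at stationary-phase entry to the robust mean of no-drug controls. That ratio is capped at 1.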

B. subtilis 168 [2] = assay: as above
In short: as §1

S. pneumoniae D39V [3] = assay: as above
In short: as §1

S. aureus DSM 20231 [4] = assay: Bliss interaction score (quartile over a dose matrix) (fitness difference); higher = more antagonism (negative = synergy)
In short: (§2)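 The Bliss score is observed minus expected fitness, where expected fitness is the product of the single-drug fitness values inferred from the combination data. Fitness is the OD595 at the onset of stationary phase over the plate's robust no-drug mean, capped at 1. Scores are summarised by quartiles over technical, biological and donor/recipient replicates.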

S. aureus Newman [5] = assay: as above
In short: as §2

B. subtilis 168 [6] = assay: as above
In short: as §2

S. pneumoniae D39V [7] = assay: as above
In short: as §2

S. aureus DSM 20231 [8] = test system: S. aureus DSM 20231
S. aureus Newman [9] = test system: S. aureus Newman
S. pneumoniae D39V [10] = test system: S. pneumoniae D39V
B. subtilis 168 [11] = test system: B. subtilis 168
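Throughout, for Bliss interaction score (quartile over a dose matrix): first quartile when negative (synergy) and third quartile when positive (antagonism).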

CC(=O)NC[C@H]1CN(c2ccc(N3CCOCC3)c(F)c2)C(=O)O1 [Linezolid] + Cc1onc(-c2ccccc2)c1C(=O)N[C@@H]1C(=O)N2[C@@H]1SC(C)(C)[C@@H]2C(=O)O [Oxacillin]
Details | fitness
B. subtilis 168 [2], first compound 0.125 µg/mL, partner 0.002 µg/mL | 0.567
B. subtilis 168 [2], first compound 0.125 µg/mL, partner 0.004 µg/mL | 0.513
B. subtilis 168 [2], first compound 0.125 µg/mL, partner 0.008 µg/mL | 0.515
B. subtilis 168 [2], first compound 0.25 µg/mL, partner 0.002 µg/mL | 0.112
B. subtilis 168 [2], first compound 0.25 µg/mL, partner 0.004 µg/mL | 0.108
B. subtilis 168 [2], first compound 0.25 µg/mL, partner 0.008 µg/mL | 0.102
B. subtilis 168 [2], first compound 0.5 µg/mL, partner 0.002 µg/mL | 0.0413
B. subtilis 168 [2], first compound 0.5 µg/mL, partner 0.004 µg/mL | 0.0471
B. subtilis 168 [2], first compound 0.5 µg/mL, partner 0.008 µg/mL | 0.0549
S. aureus DSM 20231 [1], first compound 0.125 µg/mL, partner 0.0156 µg/mL | 0.791
S. aureus DSM 20231 [1], first compound 0.125 µg/mL, partner 0.0312 µg/mL | 0.665
S. aureus DSM 20231 [1], first compound 0.125 µg/mL, partner 0.0625 µg/mL | 0.52
S. aureus DSM 20231 [1], first compound 0.25 µg/mL, partner 0.0156 µg/mL | 0.52
S. aureus DSM 20231 [1], first compound 0.25 µg/mL, partner 0.0312 µg/mL | 0.501
S. aureus DSM 20231 [1], first compound 0.25 µg/mL, partner 0.0625 µg/mL | 0.415
S. aureus DSM 20231 [1], first compound 0.5 µg/mL, partner 0.0156 µg/mL | 0.21
S. aureus DSM 20231 [1], first compound 0.5 µg/mL, partner 0.0312 µg/mL | 0.188
S. aureus DSM 20231 [1], first compound 0.5 µg/mL, partner 0.0625 µg/mL | 0.156
S. pneumoniae D39V [3], first compound 0.105 µg/mL, partner 0.01 µg/mL | 0.917
S. pneumoniae D39V [3], first compound 0.105 µg/mL, partner 0.02 µg/mL | 0.872
S. pneumoniae D39V [3], first compound 0.105 µg/mL, partner 0.04 µg/mL | 0.42
S. pneumoniae D39V [3], first compound 0.2 µg/mL, partner 0.01 µg/mL | 0.78
S. pneumoniae D39V [3], first compound 0.2 µg/mL, partner 0.02 µg/mL | 0.764
S. pneumoniae D39V [3], first compound 0.2 µg/mL, partner 0.04 µg/mL | 0.594
S. pneumoniae D39V [3], first compound 0.21 µg/mL, partner 0.01 µg/mL | 0.791
S. pneumoniae D39V [3], first compound 0.21 µg/mL, partner 0.02 µg/mL | 0.704
S. pneumoniae D39V [3], first compound 0.21 µg/mL, partner 0.04 µg/mL | 0.382
S. pneumoniae D39V [3], first compound 0.4 µg/mL, partner 0.01 µg/mL | 0.623
S. pneumoniae D39V [3], first compound 0.4 µg/mL, partner 0.02 µg/mL | 0.609
S. pneumoniae D39V [3], first compound 0.4 µg/mL, partner 0.04 µg/mL | 0.431
S. pneumoniae D39V [3], first compound 0.42 µg/mL, partner 0.01 µg/mL | 0.63
S. pneumoniae D39V [3], first compound 0.42 µg/mL, partner 0.02 µg/mL | 0.564
S. pneumoniae D39V [3], first compound 0.42 µg/mL, partner 0.04 µg/mL | 0.175
S. pneumoniae D39V [3], first compound 0.8 µg/mL, partner 0.04 µg/mL | 0.218

one replicate
Details | fitness
B. subtilis 168 [2], first compound 0.0625 µg/mL, partner 0.0078 µg/mL | 0.913
B. subtilis 168 [2], first compound 0.0625 µg/mL, partner 0.0155 µg/mL | 0.809
B. subtilis 168 [2], first compound 0.0625 µg/mL, partner 0.031 µg/mL | 0.81
B. subtilis 168 [2], first compound 0.125 µg/mL, partner 0.0078 µg/mL | 0.594
B. subtilis 168 [2], first compound 0.125 µg/mL, partner 0.0155 µg/mL | 0.553
B. subtilis 168 [2], first compound 0.125 µg/mL, partner 0.031 µg/mL | 0.529
B. subtilis 168 [2], first compound 0.125 µg/mL, partner 0.075 µg/mL | 0.611
B. subtilis 168 [2], first compound 0.125 µg/mL, partner 0.15 µg/mL | 0.0387
B. subtilis 168 [2], first compound 0.125 µg/mL, partner 0.3 µg/mL | 0.0501
B. subtilis 168 [2], first compound 0.25 µg/mL, partner 0.0078 µg/mL | 0.0705
B. subtilis 168 [2], first compound 0.25 µg/mL, partner 0.0155 µg/mL | 0.0604
B. subtilis 168 [2], first compound 0.25 µg/mL, partner 0.031 µg/mL | 0.0611
B. subtilis 168 [2], first compound 0.25 µg/mL, partner 0.075 µg/mL | 0.241
B. subtilis 168 [2], first compound 0.25 µg/mL, partner 0.15 µg/mL | 0.0531
B. subtilis 168 [2], first compound 0.25 µg/mL, partner 0.3 µg/mL | 0.0536
B. subtilis 168 [2], first compound 0.5 µg/mL, partner 0.075 µg/mL | 0.0447
B. subtilis 168 [2], first compound 0.5 µg/mL, partner 0.15 µg/mL | 0.0563
B. subtilis 168 [2], first compound 0.5 µg/mL, partner 0.3 µg/mL | 0.0594
S. aureus DSM 20231 [1], first compound 1 µg/mL, partner 0.0156 µg/mL | 0.0486
S. aureus DSM 20231 [1], first compound 1 µg/mL, partner 0.0312 µg/mL | 0.0427
S. aureus DSM 20231 [1], first compound 1 µg/mL, partner 0.0625 µg/mL | 0.0557

Details | Bliss interaction score
B. subtilis 168 [6] | 0.0403
S. aureus DSM 20231 [4] | -0.0365
S. aureus Newman [5] | -0.0461
S. pneumoniae D39V [7] | 0.136

CO[C@@H]1[C@@H](OC(N)=O)[C@@H](O)[C@H](Oc2ccc3c(O)c(NC(=O)c4ccc(O)c(CC=C(C)C)c4)c(=O)oc3c2C)OC1(C)C [Novobiocin]
B. subtilis 168 [2]
Details | fitness
0.0125 µg/mL | 0.921
0.025 µg/mL | 0.956
0.05 µg/mL | 0.986
0.1 µg/mL | 0.993
0.2 µg/mL | ≥ 1

Details | MIC [µg/mL]
S. aureus DSM 20231 [8] | 0.05 (≈ 0.0816 µM)
S. aureus Newman [9] | 0.05 (≈ 0.0816 µM)
S. pneumoniae D39V [10] | 2.5 (≈ 4.08 µM)

CN[C@H](CC(C)C)C(=O)N[C@H]1C(=O)N[C@@H](CC(N)=O)C(=O)N[C@H]2C(=O)N[C@H]3C(=O)N[C@H](C(=O)N[C@H](C(=O)O)c4cc(O)cc(O)c4-c4cc3ccc4O)[C@H](O[C@H]3C[C@](C)(N)[C@@H](O)[C@H](C)O3)c3ccc(c(Cl)c3)Oc3cc2cc(c3O[C@@H]2O[C@H](CO)[C@@H](O)[C@H](O)[C@H]2O[C@H]2C[C@](C)(NCc3ccc(-c4ccc(Cl)cc4)cc3)[C@@H](O)[C@H](C)O2)Oc2ccc(cc2Cl)[C@H]1O [Oritavancin]
Details | MIC [µg/mL]
S. aureus DSM 20231 [8] | 4.5 (≈ 2.51 µM)
S. aureus Newman [9] | 4.5 (≈ 2.51 µM)

CO[C@H]1/C=C/O[C@@]2(C)Oc3c(C)c(O)c4c(O)c(c(/C=N/N5CCN(C)CC5)c(O)c4c3C2=O)NC(=O)/C(C)=C\C=C\[C@H](C)[C@H](O)[C@@H](C)[C@@H](O)[C@@H](C)[C@H](OC(C)=O)[C@@H]1C [Rifampicin]
S. pneumoniae D39V [3]
Details | fitness
0.025 µg/mL | 0.961
0.05 µg/mL | 0.904
0.1 µg/mL | 0.322
0.2 µg/mL | 0.144

Details | MIC [µg/mL]
B. subtilis 168 [11] | 0.125 (≈ 0.152 µM)
S. aureus DSM 20231 [8] | 0.018 (≈ 0.0219 µM)
S. aureus Newman [9] | 0.035 (≈ 0.0425 µM)
S. pneumoniae D39V [10] | 0.4 (≈ 0.486 µM)

Reference: the supplement of paper PMC10627819
